Data as given in patent publication US20250186410A1, “DUAL INHIBITORS OF TRYPTOPHAN DIOXYGENASES (IDO1 AND TDO) AND THEIR USE IN THERAPY” (ANTIDO THERAPEUTICS INTERNATIONAL SÀRL, priority 2022, published 2025).

What was measured:
[1] = test system: immune cells in LLC tumors; test: Flow cytometry immune cell analysis, LLC tumors; assay type: in vivo, mouse; conditions: AT-0174 170 mg/kg, epacadostat 200 mg/kg P.O. daily
Protocol: (§1) LLC or LLC-CR (1×10^6) cells were subcutaneously injected into the flank of C57B6/J male and female mice (5 mice per group, age 6-8 weeks, Jackson laboratory) and allowed to grow for 3 days (average tumor size=50 mm^3) before being treated with the selective IDO1 inhibitor epacadostat at 200 mg/kg daily or with AT-0174 at 170 mg/kg daily (a dual inhibitor of IDO1 and TDO enzymes). Both compounds were administered via oral gavage (P.O.) and diluted with 95% water+5% methylcellulose (0.5%) and stored at −20° C. Compound was prepared every 5 days. Methyl cellulose (95+5%) was used as control (“Veh”). Tumor growth was evaluated every 2 days by measuring tumor volume with calipers according to the following formula: tumor volume=width^2×length×0.5. At the end of the study, mice were sacrificed and the blood, tumor, and lymph nodes were collected and processed for KYN and tryptophan (TRP) measurement and immune cell assessment respectively.
(§2) Tumors or lymph nodes were collected from mice and homogenized using syringe plungers. Mesh filters (40 μM) were placed on 15 mL or 50 mL tubes and the tissue suspensions were filtered. Cell filtrates were spun down at 1000 g. Red blood cell lysis buffer (1% […]) was added into the cell pellets and resuspended. Cell pellets were washed using PBS and isolated. Tumors were isolated using EasySep™ Mouse TIL (CD45) Positive Selection Kit (Stemcell Technologies). To detect regulatory T cells (T-regs) or natural killer cells (NKs), EasySep™ Mouse CD25 Regulatory T Cell Positive Selection Kit and EasySep™ Mouse CD49b Positive Selection Kit were used, respectively. Isolated cells were stained according to manufacturer's instructions. Cells were also fixed with 2% paraformaldehyde and analysis was done using the CytoFLEX Flow Cytometer (Beckman). All flow antibodies were obtained from Biolegend.

[2] = test system: LLC (cisplatin-sensitive cell tumours); test: Tumor growth in syngeneic mouse model, LLC allografts; assay type: in vivo; conditions: epacadostat 200 mg/kg P.O. daily
Protocol: as §1
In this example, LLC-CR from the Lewis lung mouse cell line (LLC; see methods) was used to determine, in vivo, the effect of IDO1 or dual IDO1/TDO inhibition on tumor growth. Mice were inoculated with either LLC or LLC-CR and treated with epacadostat (200 mg/kg P.O. 1/day) or AT-0174 (170 mg/kg P.O. 1/day).

[3] = test system: LLC-CR (cisplatin-resistant cell tumours); test: Tumor growth in syngeneic mouse model, LLC-CR allografts; assay type: in vivo; conditions: for tumor weight: LLC-CR allograft mice, FIG. 2C; for tumor volume, Mean: LLC-CR tumours, AT-0174 170 mg/kg, epacadostat 200 mg/kg P.O. daily; for Tumor growth: cisplatin-resistant tumor group, FIG. 2B
Protocol: Cisplatin resistant mouse cell lines (LLC-CR) were derived from LLC (mouse Lewis lung cancer cells (epidermoid carcinoma), ATCC) through treatment with increasing doses of cisplatin intermittently. LLC-CR clones were maintained in half GI50 dosage concentration. […] The cultures were observed daily and allowed to grow until they reached an initial cell density. […] After the cells recovered from cisplatin toxicity, they were treated again with increasing dosage of cisplatin for 24 h. These cells are seeded at 500-1000 cells per dish and cultured for 5-7 days. Clones are selected and expanded as well as tested for cisplatin sensitivity. Similar processes of exposure are carried out for a third and fourth time to generate higher resistant clones. At the end, the resistance clones (LLC-CR) were maintained in media completed with 1 μg/ml (half GI50 dosage) of cisplatin. […] Both compounds were administered via oral gavage (P.O.) and diluted with 95% water+5% methylcellulose (0.5%) and stored at −20° C. Compound was prepared every 5 days. Methyl cellulose (95+5%) was used as control (“Veh”). […] At the end of the study, mice were sacrificed and the blood, tumor, and lymph nodes were collected and processed for KYN and tryptophan (TRP) measurement and immune cell assessment respectively. In this example, LLC-CR from the Lewis lung mouse cell line (LLC; see methods) was used to determine, in vivo, the effect of IDO1 or dual IDO1/TDO inhibition on tumor growth. Mice were inoculated with either LLC or LLC-CR and treated with epacadostat (200 mg/kg P.O. 1/day) or AT-0174 (170 mg/kg P.O. 1/day).

[4] = test system: immune cells in LLC-CR tumors; test: Flow cytometry immune cell analysis, LLC-CR tumors; assay type: in vivo, mouse; conditions: AT-0174 170 mg/kg, epacadostat 200 mg/kg P.O. daily
Protocol: as §1, §2

[5] = test system: kynurenine (KYN) and tryptophan (TRP) levels in mouse serum; test: KYN and TRP measurements, LLC-bearing mice; assay type: in vivo; conditions: AT-0174 170 mg/kg, epacadostat 200 mg/kg P.O. daily
Protocol: as §1
Blood samples were collected via cardiac puncture from mice at the time of sacrifice and the Biochrom 30 amino acid analyzer (using ion exchange chromatography) was used to analyze free amino acids in samples. Briefly, 200 μL of serum extract and equal volume of 30% v/v deproteinization agent (sulfosalicylic acid) were mixed and vortexed for 10 s. Samples were then incubated at 55° C. for 20 min, spin down at 2500 g for 20 min at 4° C. Supernatant were collected, filtered through a 0.22 μm filter, and injected into the Biochrom 30. Values were reported compared to normal ranges in controls. Samples used in ion exchange chromatography are separated in an analytical fashion with an ion exchange column and buffers of increasing pH and ionic strength. After post-column derivatization with Ninhydrin, and colorimetric intensity recordings at 570 nm and 440 nm, the amino acids separated by chromatography were detected. Amino acid concentration was calculated by comparing the peak area of a particular amino acid to the peak area of an internal standard-AEC of known concentration, and then multiplying by its specific response factor from calibration.

## NS(=O)(=O)NCCNc1nonc1C(=NO)Nc1ccc(F)c(Br)c1 [Epacadostat, epacadostat, reference compound]
[1]
  CD3^+ CD8^+ T-Effector: 5.16 ± 0.65
  CD3^+ CD49^+ NKG2D^+ NK Cells: 2.66 ± 0.57
  CD4^+ CD25^+ FoxP3^+ T-regs: 13.27 ± 0.83
[2]; day 1, AT-0174 170 mg/kg
  tumor volume, Mean: 47.0 mm^3
[2]; day 2, AT-0174 170 mg/kg
  tumor volume, Mean: 108.0 mm^3
[2]; day 3, AT-0174 170 mg/kg
  tumor volume, Mean: 110.0 mm^3
[2]; day 4, AT-0174 170 mg/kg
  tumor volume, Mean: 124.0 mm^3
[2]; day 5, AT-0174 170 mg/kg
  tumor volume, Mean: 137.0 mm^3
[2]; day 6, AT-0174 170 mg/kg
  tumor volume, Mean: 151.0 mm^3
[2]; day 7, AT-0174 170 mg/kg
  tumor volume, Mean: 208.0 mm^3
[2]; day 8, AT-0174 170 mg/kg
  tumor volume, Mean: 290.0 mm^3
[2]; day 9, AT-0174 170 mg/kg
  tumor volume, Mean: 325.0 mm^3
[2]; day 10, AT-0174 170 mg/kg
  tumor volume, Mean: 409.0 mm^3
[2]; day 11, AT-0174 170 mg/kg
  tumor volume, Mean: 563.0 mm^3
[2]; day 12, AT-0174 170 mg/kg
  tumor volume, Mean: 625.0 mm^3
[2]; day 13, AT-0174 170 mg/kg
  tumor volume, Mean: 725.0 mm^3
[2]; day 14, AT-0174 170 mg/kg
  tumor volume, Mean: 785.0 mm^3
[2]; day 15, AT-0174 170 mg/kg
  tumor volume, Mean: 910.0 mm^3
[3]
  tumor weight: reduction of the total tumor weight
  Tumor growth: significantly reduced
[3]; day 1
  tumor volume, Mean: 57.0 mm^3
[3]; day 2
  tumor volume, Mean: 89.0 mm^3
[3]; day 3
  tumor volume, Mean: 96.0 mm^3
[3]; day 4
  tumor volume, Mean: 126.0 mm^3
[3]; day 5
  tumor volume, Mean: 137.0 mm^3
[3]; day 6
  tumor volume, Mean: 158.0 mm^3
[3]; day 7
  tumor volume, Mean: 212.0 mm^3
[3]; day 8
  tumor volume, Mean: 291.0 mm^3
[3]; day 9
  tumor volume, Mean: 340.0 mm^3
[3]; day 10
  tumor volume, Mean: 390.0 mm^3
[3]; day 11
  tumor volume, Mean: 430.0 mm^3
[3]; day 12
  tumor volume, Mean: 490.0 mm^3
[3]; day 13
  tumor volume, Mean: 511.0 mm^3
[3]; day 15
  tumor volume, Mean: 565.0 mm^3
[4]
  CD3^+ CD8^+ T-Effector: 4.06 ± 0.63
  CD3^+ CD49^+ NKG2D^+ NK Cells: 2.38 ± 0.42
  CD4^+ CD25^+ FoxP3^+ T-regs: 12.60 ± 0.94
[5]
  KYN/TRP Ratio: 1.35 ± 0.23
  Kynurenine: 74.6 ± 7.7
  Tyrptophan: 58.6 ± 5.6

## Nc1noc2nc(Cl)c(F)cc12 [Compound 66, 6-Chloro-5-fluoroisoxazolo[5,4-b]pyridin-3-amine]
[1]
  CD3^+ CD8^+ T-Effector: 5.38 ± 0.79
  CD3^+ CD49^+ NKG2D^+ NK Cells: 3.58 ± 0.70
  CD4^+ CD25^+ FoxP3^+ T-regs: 10.05 ± 0.79
[2]; day 1, AT-0174 170 mg/kg
  tumor volume, Mean: 58.0 mm^3
[2]; day 2, AT-0174 170 mg/kg
  tumor volume, Mean: 79.0 mm^3
[2]; day 3, AT-0174 170 mg/kg
  tumor volume, Mean: 110.0 mm^3
[2]; day 4, AT-0174 170 mg/kg
  tumor volume, Mean: 125.0 mm^3
[2]; day 5, AT-0174 170 mg/kg
  tumor volume, Mean: 115.2 mm^3
[2]; day 6, AT-0174 170 mg/kg
  tumor volume, Mean: 124.0 mm^3
[2]; day 7, AT-0174 170 mg/kg
  tumor volume, Mean: 135.0 mm^3
[2]; day 8, AT-0174 170 mg/kg
  tumor volume, Mean: 140.6 mm^3
[2]; day 9, AT-0174 170 mg/kg
  tumor volume, Mean: 171.0 mm^3
[2]; day 10, AT-0174 170 mg/kg
  tumor volume, Mean: 230.0 mm^3
[2]; day 11, AT-0174 170 mg/kg
  tumor volume, Mean: 340.0 mm^3
[2]; day 12, AT-0174 170 mg/kg
  tumor volume, Mean: 430.0 mm^3
[2]; day 13, AT-0174 170 mg/kg
  tumor volume, Mean: 571.8 mm^3
[2]; day 14, AT-0174 170 mg/kg
  tumor volume, Mean: 645.0 mm^3
[2]; day 15, AT-0174 170 mg/kg
  tumor volume, Mean: 675.0 mm^3
[3]
  tumor weight: Significant reduction in tumor weight
  Tumor growth: significantly reduced
[3]; day 1
  tumor volume, Mean: 57.0 mm^3
[3]; day 2
  tumor volume, Mean: 93.0 mm^3
[3]; day 3
  tumor volume, Mean: 102.0 mm^3
[3]; day 4
  tumor volume, Mean: 115.0 mm^3
[3]; day 5
  tumor volume, Mean: 135.0 mm^3
[3]; day 6
  tumor volume, Mean: 153.0 mm^3
[3]; day 7
  tumor volume, Mean: 185.0 mm^3
[3]; day 8
  tumor volume, Mean: 198.0 mm^3
[3]; day 9
  tumor volume, Mean: 213.0 mm^3
[3]; day 10
  tumor volume, Mean: 228.0 mm^3
[3]; day 11
  tumor volume, Mean: 272.0 mm^3
[3]; day 12
  tumor volume, Mean: 280.0 mm^3
[3]; day 13
  tumor volume, Mean: 310.0 mm^3
[3]; day 14
  tumor volume, Mean: 345.0 mm^3
[3]; day 15
  tumor volume, Mean: 360.0 mm^3
[4]
  CD3^+ CD8^+ T-Effector: 8.13 ± 0.94
  CD3^+ CD49^+ NKG2D^+ NK Cells: 7.44 ± 0.62
  CD4^+ CD25^+ FoxP3^+ T-regs: 5.75 ± 1.53
[5]
  KYN/TRP Ratio: 1.11 ± 0.17
  Kynurenine: 64.2 ± 9.3
  Tyrptophan: 59.2 ± 4.4
